Assay [1] deals with T1, KAT-2 (kynurenine aminotransferase-2) (Homo sapiens, UniProt Q8N5Z0).
T1 construct: gene AADAT; recombinant KAT-2
Briefly: HPLC assay of KYN to KYNA conversion by recombinant human KAT-2. The assay is classed as biochemical.

Assay [2] addresses T1, KAT-2 (kynurenine aminotransferase-2). Briefly: HPLC assay of KYN to KYNA conversion by recombinant human KAT-2, % inhibition at […]. The assay is classed as biochemical.

The structures appear in SMILES notation. Like-named read-outs stand apart in the source and are kept apart here.

T1 sequence (Q8N5Z0 30-425): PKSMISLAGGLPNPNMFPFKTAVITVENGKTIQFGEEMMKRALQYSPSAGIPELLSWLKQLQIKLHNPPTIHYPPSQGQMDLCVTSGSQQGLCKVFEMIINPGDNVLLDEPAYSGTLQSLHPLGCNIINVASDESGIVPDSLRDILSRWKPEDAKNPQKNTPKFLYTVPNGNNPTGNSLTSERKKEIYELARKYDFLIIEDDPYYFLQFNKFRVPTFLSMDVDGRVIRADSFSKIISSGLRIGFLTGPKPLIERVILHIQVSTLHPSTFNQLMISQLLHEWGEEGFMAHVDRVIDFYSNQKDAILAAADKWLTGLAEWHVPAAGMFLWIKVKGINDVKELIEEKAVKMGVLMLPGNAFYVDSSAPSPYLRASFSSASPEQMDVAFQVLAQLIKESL

Consider `C[C@H]1COc2c(N3CCN(N)CC3)c(F)cc3c(=O)c(C(=O)O)cn1c23` [BFF-122], for which the IC50 in assay [1] (read-out: IC50) fell in the range of 15 to 20 µM. `CCS(=O)(=O)c1ccc(C(=O)C[C@H](N)C(=O)O)cc1` [(S)-ESBA, (S)-4-(Ethylsulfonyl)benzoylalanine]: the inhibition at 200 µM in assay [2] came out at 20%.

Consider `N[C@H]1Cc2ccccc2N(O)C1=O` [PF-04859989], for which the IC50 in assay [1] was 1 to 3 µM.

Broadly, the IC50 is the concentration at which inhibition is half-maximal. As usually defined, the inhibition is the drop in the measured response relative to a control, in per cent.

The values above are taken from PMC6273595, “Study of the Activity and Possible Mechanism of Action of a Reversible Inhibitor of Recombinant Human KAT-2: A Promising Lead in Neurodegenerative and Cognitive Disorders” (Molecules, 2016).
